{
  "source": "patent US20230263891A1",
  "about": "“SONOGENETIC STIMULATION OF CELLS EXPRESSING TRPA1” (Salk Institute for Biological Studies, priority 2020, published 2023)",
  "format_in_all_cases": "cell-based",
  "key": {"hsTRPA1 [1]": {"target": "T1, hsTRPA1 (Homo sapiens, UniProt O75762)", "T1 construct": "HEK cells transfected with either full-length hsTRPA1 or channels containing deletions; porcine teschovirus-1 2A self-cleaving peptide (p2A) linking the channel to dTomato in a bicistronic vector (cleaved yes); host or cells: HEK 293T cells expressing human alpha-v beta-3 integrin and stably expressing GCaMP6f", "T1 sequence (O75762 whole entry)": "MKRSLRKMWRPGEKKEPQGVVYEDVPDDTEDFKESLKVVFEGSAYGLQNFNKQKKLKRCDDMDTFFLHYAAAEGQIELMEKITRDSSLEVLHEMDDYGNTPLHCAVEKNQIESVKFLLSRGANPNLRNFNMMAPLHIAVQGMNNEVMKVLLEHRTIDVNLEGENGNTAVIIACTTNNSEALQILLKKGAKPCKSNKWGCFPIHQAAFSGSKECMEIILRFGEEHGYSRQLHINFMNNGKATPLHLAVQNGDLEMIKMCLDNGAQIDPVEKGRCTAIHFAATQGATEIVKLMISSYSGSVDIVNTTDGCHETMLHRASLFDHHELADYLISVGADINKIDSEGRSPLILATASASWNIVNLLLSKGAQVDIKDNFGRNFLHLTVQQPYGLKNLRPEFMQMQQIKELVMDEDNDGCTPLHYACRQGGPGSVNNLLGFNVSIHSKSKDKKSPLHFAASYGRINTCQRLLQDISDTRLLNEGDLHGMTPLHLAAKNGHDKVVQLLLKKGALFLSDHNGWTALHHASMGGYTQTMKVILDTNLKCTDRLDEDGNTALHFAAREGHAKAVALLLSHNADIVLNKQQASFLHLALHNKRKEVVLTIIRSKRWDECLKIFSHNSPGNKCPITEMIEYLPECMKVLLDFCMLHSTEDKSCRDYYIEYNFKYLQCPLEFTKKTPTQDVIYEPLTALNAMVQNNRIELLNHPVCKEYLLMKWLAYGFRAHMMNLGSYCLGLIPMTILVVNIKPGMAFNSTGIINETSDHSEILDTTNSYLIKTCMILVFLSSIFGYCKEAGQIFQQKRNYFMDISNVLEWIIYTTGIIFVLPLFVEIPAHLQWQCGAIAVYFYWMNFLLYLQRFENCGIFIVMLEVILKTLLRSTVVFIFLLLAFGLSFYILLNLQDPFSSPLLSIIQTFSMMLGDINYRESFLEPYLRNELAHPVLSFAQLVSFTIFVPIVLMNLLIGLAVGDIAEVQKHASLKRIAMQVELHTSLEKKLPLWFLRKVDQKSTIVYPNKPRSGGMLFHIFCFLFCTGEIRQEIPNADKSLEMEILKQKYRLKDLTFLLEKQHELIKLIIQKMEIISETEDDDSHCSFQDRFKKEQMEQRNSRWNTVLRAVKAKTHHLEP", "assay": "Agonist activation of hsTRPA1-expressing HEK cells (GCaMP6f)", "conditions": "NMM 100 μM; AITC 33 μM; dTom control cells for comparison"}, "[2]": {"tested_on": "mouse primary cortical neurons", "assay": "GCaMP6f calcium imaging of primary cortical neurons under ultrasound or AITC"}, "hsTRPA1 [3]": {"target": "T1, hsTRPA1"}, "hsTRPA1 [4]": {"target": "T1, hsTRPA1", "assay": "Effect of agents on ultrasound-evoked GCaMP6f response of hsTRPA1-expressing HEK cells"}, "hsTRPA1 [5]": {"target": "T1, hsTRPA1", "assay": "Effect of agents on AITC-triggered GCaMP6f response of hsTRPA1-expressing HEK cells", "conditions": "AITC 33 μM; after incubation with agent; versus vehicle"}, "mouse-Piezol": {"target": "mouse-Piezol (Mus musculus, UniProt E2JF22)", "sequence (E2JF22 whole entry)": "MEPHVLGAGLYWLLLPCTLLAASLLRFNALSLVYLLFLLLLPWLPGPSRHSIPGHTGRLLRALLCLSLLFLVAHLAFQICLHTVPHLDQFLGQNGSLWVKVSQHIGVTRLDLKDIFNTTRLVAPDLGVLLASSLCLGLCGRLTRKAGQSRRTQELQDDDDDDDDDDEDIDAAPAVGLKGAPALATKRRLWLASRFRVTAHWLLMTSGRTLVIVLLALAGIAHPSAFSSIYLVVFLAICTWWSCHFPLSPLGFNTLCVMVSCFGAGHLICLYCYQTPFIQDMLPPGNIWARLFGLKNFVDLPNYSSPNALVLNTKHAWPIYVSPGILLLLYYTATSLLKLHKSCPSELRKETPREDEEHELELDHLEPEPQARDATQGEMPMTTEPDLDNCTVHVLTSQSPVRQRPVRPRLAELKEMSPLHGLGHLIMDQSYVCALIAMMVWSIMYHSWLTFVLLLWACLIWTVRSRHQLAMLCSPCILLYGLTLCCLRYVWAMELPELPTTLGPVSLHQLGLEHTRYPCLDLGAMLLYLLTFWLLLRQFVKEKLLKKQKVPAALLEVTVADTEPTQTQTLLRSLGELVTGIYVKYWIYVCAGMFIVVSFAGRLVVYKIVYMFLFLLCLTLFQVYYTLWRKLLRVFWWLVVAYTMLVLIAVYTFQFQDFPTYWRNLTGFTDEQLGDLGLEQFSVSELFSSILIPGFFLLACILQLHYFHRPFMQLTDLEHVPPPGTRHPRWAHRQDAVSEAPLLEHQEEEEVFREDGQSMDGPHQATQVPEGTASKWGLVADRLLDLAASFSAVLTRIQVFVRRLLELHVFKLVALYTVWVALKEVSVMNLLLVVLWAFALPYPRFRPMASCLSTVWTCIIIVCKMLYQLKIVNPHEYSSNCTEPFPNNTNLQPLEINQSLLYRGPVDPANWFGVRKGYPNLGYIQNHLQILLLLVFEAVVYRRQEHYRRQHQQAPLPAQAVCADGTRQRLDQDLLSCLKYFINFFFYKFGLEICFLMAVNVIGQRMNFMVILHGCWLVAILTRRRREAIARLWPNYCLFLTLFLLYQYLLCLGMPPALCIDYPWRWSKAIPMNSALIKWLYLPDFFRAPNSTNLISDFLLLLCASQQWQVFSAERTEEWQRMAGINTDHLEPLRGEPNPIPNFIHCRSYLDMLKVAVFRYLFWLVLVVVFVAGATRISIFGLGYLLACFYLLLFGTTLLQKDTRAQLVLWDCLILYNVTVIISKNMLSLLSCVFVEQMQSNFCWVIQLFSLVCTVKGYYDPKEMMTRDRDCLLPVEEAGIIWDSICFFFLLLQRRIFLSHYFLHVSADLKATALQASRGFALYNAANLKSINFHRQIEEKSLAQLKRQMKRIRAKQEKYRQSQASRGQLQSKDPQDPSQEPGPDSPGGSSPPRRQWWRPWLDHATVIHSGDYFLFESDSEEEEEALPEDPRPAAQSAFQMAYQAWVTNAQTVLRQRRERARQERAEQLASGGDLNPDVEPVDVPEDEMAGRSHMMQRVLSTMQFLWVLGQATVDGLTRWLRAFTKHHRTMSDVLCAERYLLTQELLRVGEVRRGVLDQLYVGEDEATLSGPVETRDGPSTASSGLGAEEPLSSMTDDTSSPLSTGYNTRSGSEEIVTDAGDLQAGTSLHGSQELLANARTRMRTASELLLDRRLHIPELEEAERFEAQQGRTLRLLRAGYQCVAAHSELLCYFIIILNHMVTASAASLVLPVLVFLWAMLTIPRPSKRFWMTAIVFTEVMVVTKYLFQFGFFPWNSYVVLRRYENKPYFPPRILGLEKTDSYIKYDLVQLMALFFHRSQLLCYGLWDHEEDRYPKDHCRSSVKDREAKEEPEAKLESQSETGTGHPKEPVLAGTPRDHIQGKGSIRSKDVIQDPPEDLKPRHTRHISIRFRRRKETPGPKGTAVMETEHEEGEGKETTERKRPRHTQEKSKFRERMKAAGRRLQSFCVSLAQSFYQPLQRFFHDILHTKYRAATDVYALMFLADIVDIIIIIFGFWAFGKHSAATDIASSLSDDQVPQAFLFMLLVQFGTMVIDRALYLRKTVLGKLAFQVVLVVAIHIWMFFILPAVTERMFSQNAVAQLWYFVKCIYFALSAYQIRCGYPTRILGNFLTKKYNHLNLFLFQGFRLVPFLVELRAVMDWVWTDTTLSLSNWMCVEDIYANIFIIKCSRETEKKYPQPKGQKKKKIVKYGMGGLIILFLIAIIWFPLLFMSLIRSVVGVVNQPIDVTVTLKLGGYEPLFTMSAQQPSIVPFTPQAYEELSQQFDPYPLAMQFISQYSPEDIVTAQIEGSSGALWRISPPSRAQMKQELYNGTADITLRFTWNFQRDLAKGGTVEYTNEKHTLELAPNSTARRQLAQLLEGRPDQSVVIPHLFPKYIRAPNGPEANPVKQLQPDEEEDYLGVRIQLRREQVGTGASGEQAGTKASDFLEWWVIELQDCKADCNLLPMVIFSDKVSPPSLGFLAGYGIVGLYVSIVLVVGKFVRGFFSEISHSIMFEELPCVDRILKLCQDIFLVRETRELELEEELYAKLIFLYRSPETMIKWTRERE", "conditions": "yoda-1 10 μM"}, "[6]": {"tested_on": "Human Embryonic Kidney 293T (HEK) cells", "assay": "Ultrasound-evoked GCaMP6f calcium response of HEK cells transfected with candidate channels (screen and TRPA1 variants)", "conditions": "for Response to ultrasound stimulation (cells activated, GCaMP6f): transfected GCaMP6f HEK cells, 6.91 MHz, screen at 100 msecs, 1.5 MPa"}, "[7]": {"tested_on": "Human Embryonic Kidney 293T (HEK) cells", "assay": "AITC (chemical agonist) GCaMP6f response of HEK cells transfected with hsTRPA1 variants", "conditions": "AITC 33 μM"}, "[8]": {"conditions": "control neurons without hsTRPA1"}, "[9]": {"conditions": "A784168 2 μM, BAPTA 30 μM, versus vehicle"}, "[10]": {"conditions": "agent added 45 minutes before, HC-030031 40 μM, MCD 5 mM, nocodazole 5 μM, latrunculin A 1 μM, paclitaxel 600 nM, versus vehicle"}},
  "note": "Like-named read-outs stand apart in the source and are kept apart here. Where no end group is shown, it is not given here.",
  "data": [
    {"molecule": "C=CCN=C=S", "note": "[AITC, allyl isothiocyanate]", "values": [
      {"measurement": "Activation of TRPA1-expressing HEK cells by agonist (GCaMP6f)", "setting": "hsTRPA1 [1]", "result": "specifically activated TRPA1-expressing HEK cells"},
      {"measurement": "Response of Cre-only control neurons to agonist", "setting": "[2]; [8]", "result": "did not respond"}
    ]},
    {"molecule": "O=C(O)CN(CC(=O)O)c1ccccc1OCCOc1ccccc1N(CC(=O)O)CC(=O)O", "note": "[BAPTA]", "values": [
      {"measurement": "Effect on ultrasound responses of hsTRPA1-expressing neurons (GCaMP6f)", "setting": "[2]; [9]", "result": "blocked neuronal responses to ultrasound"}
    ]},
    {"molecule": "CC(C)c1ccc(NC(=O)Cn2cnc3c2c(=O)n(C)c(=O)n3C)cc1", "note": "[HC-030331]", "values": [
      {"measurement": "Effect on ultrasound-triggered membrane events (mean peak amplitude)", "setting": "hsTRPA1 [3]", "result": "attenuated"},
      {"measurement": "Effect on ultrasound responses of hsTRPA1-expressing HEK cells (GCaMP6f peak amplitude)", "setting": "hsTRPA1 [4]", "result": "inhibited"},
      {"measurement": "Effect on ultrasound responses of hsTRPA1-expressing neurons (GCaMP6f)", "setting": "[2]; [9]", "result": "significantly attenuated"},
      {"measurement": "Effect on ultrasound-evoked activity of control (Cre) neurons", "setting": "[2]; [8]", "result": "without affecting"}
    ]},
    {"molecule": "CN1C(=O)C=CC1=O", "note": "[NMM, N-methylmaleimide]", "values": [
      {"measurement": "Activation of TRPA1-expressing HEK cells by agonist (GCaMP6f)", "setting": "hsTRPA1 [1]", "result": "specifically activated TRPA1-expressing HEK cells"}
    ]},
    {"molecule": "CC(=O)O[C@H]1C(=O)[C@@]2(C)[C@H]([C@H](OC(=O)c3ccccc3)[C@]3(O)C[C@H](OC(=O)[C@H](O)[C@@H](NC(=O)c4ccccc4)c4ccccc4)C(C)=C1C3(C)C)[C@]1(OC(C)=O)CO[C@@H]1C[C@@H]2O", "note": "[Taxol, paclitaxel]", "values": [
      {"measurement": "Effect on ultrasound responses of hsTRPA1-expressing HEK cells (GCaMP6f peak amplitude)", "setting": "hsTRPA1 [4]; [10]", "result": "no significant effect"},
      {"measurement": "Effect on AITC-triggered responses of hsTRPA1-expressing HEK cells", "setting": "hsTRPA1 [5]", "result": "significantly reduced"}
    ]},
    {"molecule": "C=C1[C@@H](C)[C@H]2[C@H](Cc3ccccc3)NC(=O)[C@]23[C@H](OC(C)=O)/C=C/[C@@](C)(O)C(=O)[C@@H](C)C/C=C/[C@H]3[C@@H]1O", "note": "[cytochalasin D]", "values": [
      {"measurement": "Effect on ultrasound responses of hsTRPA1-expressing HEK cells (GCaMP6f peak amplitude)", "setting": "hsTRPA1 [4]; [10]", "result": "reduced the ultrasound responses"},
      {"measurement": "Effect on AITC-triggered responses of hsTRPA1-expressing HEK cells", "setting": "hsTRPA1 [5]", "result": "not to be altered"}
    ]},
    {"molecule": "C/C1=C\\[C@H](C)C[C@H](C)OC(=O)C[C@H](c2ccc(O)cc2)NC(=O)[C@@H](Cc2c(Br)[nH]c3ccccc23)N(C)C(=O)[C@H](C)NC(=O)[C@@H](C)C1", "note": "[jasplakinolide]", "values": [
      {"measurement": "Effect on AITC-triggered responses of hsTRPA1-expressing HEK cells", "setting": "hsTRPA1 [5]", "result": "significantly reduced"}
    ]},
    {"molecule": "C/C1=C/C(=O)O[C@@H]2C[C@@H](CC[C@H](C)/C=C\\C=C\\CC1)O[C@@](O)([C@@H]1CSC(=O)N1)C2", "note": "[latrunculin A]", "values": [
      {"measurement": "Effect on ultrasound responses of hsTRPA1-expressing HEK cells (GCaMP6f peak amplitude)", "setting": "hsTRPA1 [4]; [10]", "result": "reduced the ultrasound responses"},
      {"measurement": "Effect on AITC-triggered responses of hsTRPA1-expressing HEK cells", "setting": "hsTRPA1 [5]", "result": "significantly reduced"}
    ]},
    {"molecule": "COC(=O)Nc1nc2ccc(C(=O)c3cccs3)cc2[nH]1", "note": "[nocodazole]", "values": [
      {"measurement": "Effect on ultrasound responses of hsTRPA1-expressing HEK cells (GCaMP6f peak amplitude)", "setting": "hsTRPA1 [4]; [10]", "result": "no significant effect"},
      {"measurement": "Effect on AITC-triggered responses of hsTRPA1-expressing HEK cells", "setting": "hsTRPA1 [5]", "result": "not to be altered"}
    ]},
    {"molecule": "NC1=N[C@H](O)[C@H]2[C@H]3O[C@]4(O)O[C@@H]([C@@H](O)[C@@]2(N1)[C@@H]4O)[C@]3(O)CO", "note": "[tetrodotoxin]", "values": [
      {"measurement": "Effect on ultrasound responses of hsTRPA1-expressing neurons (GCaMP6f)", "setting": "[2]", "result": "partially blocked"},
      {"measurement": "Effect on ultrasound-evoked activity of control (Cre) neurons", "setting": "[2]", "result": "completely abolishing responses"}
    ]},
    {"molecule": "Clc1cccc(Cl)c1CSc1nnc(-c2cnccn2)s1", "note": "[yoda-1]", "values": [
      {"measurement": "Response of HEK cells expressing mouse Piezo1 to compound", "setting": "mouse-Piezol", "result": "respond"}
    ]},
    {"molecule": "GsMTx-4-4: GsMTx-4, applied to Piezo1- and TRPV1-expressing HEK cells (GCLEFWWKCNPNDDKCCRPKLKCSKLFKLCNFSF; ends and bridges not checked; cysteine pairing not given here; UniProt Q7YT39 47-80, looked up)", "values": [
      {"measurement": "Response of HEK cells expressing mouse Piezo1 to compound", "setting": "mouse-Piezol", "result": "not"}
    ]},
    {"molecule": "methyl-beta-cyclodextrin [MCD]", "values": [
      {"measurement": "Effect on ultrasound responses of hsTRPA1-expressing HEK cells (GCaMP6f peak amplitude)", "setting": "hsTRPA1 [4]; [10]", "result": "attenuated hsTRPA1 responses to ultrasound"},
      {"measurement": "Effect on AITC-triggered responses of hsTRPA1-expressing HEK cells", "setting": "hsTRPA1 [5]", "result": "did not affect the response to AITC"}
    ]},
    {"molecule": "mouse homolog: mouse TRPA1 (Mus musculus; RefSeq NM_177781)", "values": [
      {"measurement": "Response to ultrasound stimulation (cells activated, GCaMP6f)", "setting": "[6]", "result": "only a third as responsive as hsTRPA1"}
    ]},
    {"molecule": "mouse-Piezol: mouse Piezo1 channel expressed in HEK cells", "values": [
      {"measurement": "Response to ultrasound stimulation (cells activated, GCaMP6f)", "setting": "[6]", "result": "not"}
    ]},
    {"molecule": "human-TRPV1: human TRPV1 channel expressed in HEK cells (protein, UniProt Q8NER1 1-839, looked up) Transient receptor potential …: MKKWSSTDLGAAADPLQKDTCPDPLDGDPNSRPPPAKPQLSTAKSRTRLFGKGDSEEAFPVDCPHEEGELDSCPTITVSPVITIQRPGDGPTGARLLSQDSVAASTEKTLRLYDRRSIFEAVAQNNCQDLESLLLFLQKSKKHLTDNEFKDPETGKTCLLKAMLNLHDGQNTTIPLLLEIARQTDSLKELVNASYTDSYYKGQTALHIAIERRNMALVTLLVENGADVQAAAHGDFFKKTKGRPGFYFGELPLSLAACTNQLGIVKFLLQNSWQTADISARDSVGNTVLHALVEVADNTADNTKFVTSMYNEILMLGAKLHPTLKLEELTNKKGMTPLALAAGTGKIGVLAYILQREIQEPECRHLSRKFTEWAYGPVHSSLYDLSCIDTCEKNSVLEVIAYSSSETPNRHDMLLVEPLNRLLQDKWDRFVKRIFYFNFLVYCLYMIIFTMAAYYRPVDGLPPFKMEKTGDYFRVTGEILSVLGGVYFFFRGIQYFLQRRPSMKTLFVDSYSEMLFFLQSLFMLATVVLYFSHLKEYVASMVFSLALGWTNMLYYTRGFQQMGIYAVMIEKMILRDLCRFMFVYIVFLFGFSTAVVTLIEDGKNDSLPSESTSHRWRGPACRPPDSSYNSLYSTCLELFKFTIGMGDLEFTENYDFKAVFIILLLAYVILTYILLLNMLIALMGETVNKIAQESKNIWKLQRAITILDTEKSFLKCMRKAFRSGKLLQVGYTPDGKDDYRWCFRVDEVNWTTWNTNVGIINEDPGNCEGVKRTLSFSLRSSRVSGRHWKNFALVPLLREASARDRQSAQPEEVYLRQFSGSLKPEDAEVFKSPAASGEK", "values": [
      {"measurement": "Response to ultrasound stimulation (cells activated, GCaMP6f)", "setting": "[6]", "result": "not"}
    ]},
    {"molecule": "Y785S: hsTRPA1 mutant with TM2 CRAC domain disrupted, Tyr785 replaced with Ser (protein, UniProt O75762 1-1119, looked up, variant Y785S) Transient receptor potential …: MKRSLRKMWRPGEKKEPQGVVYEDVPDDTEDFKESLKVVFEGSAYGLQNFNKQKKLKRCDDMDTFFLHYAAAEGQIELMEKITRDSSLEVLHEMDDYGNTPLHCAVEKNQIESVKFLLSRGANPNLRNFNMMAPLHIAVQGMNNEVMKVLLEHRTIDVNLEGENGNTAVIIACTTNNSEALQILLKKGAKPCKSNKWGCFPIHQAAFSGSKECMEIILRFGEEHGYSRQLHINFMNNGKATPLHLAVQNGDLEMIKMCLDNGAQIDPVEKGRCTAIHFAATQGATEIVKLMISSYSGSVDIVNTTDGCHETMLHRASLFDHHELADYLISVGADINKIDSEGRSPLILATASASWNIVNLLLSKGAQVDIKDNFGRNFLHLTVQQPYGLKNLRPEFMQMQQIKELVMDEDNDGCTPLHYACRQGGPGSVNNLLGFNVSIHSKSKDKKSPLHFAASYGRINTCQRLLQDISDTRLLNEGDLHGMTPLHLAAKNGHDKVVQLLLKKGALFLSDHNGWTALHHASMGGYTQTMKVILDTNLKCTDRLDEDGNTALHFAAREGHAKAVALLLSHNADIVLNKQQASFLHLALHNKRKEVVLTIIRSKRWDECLKIFSHNSPGNKCPITEMIEYLPECMKVLLDFCMLHSTEDKSCRDYYIEYNFKYLQCPLEFTKKTPTQDVIYEPLTALNAMVQNNRIELLNHPVCKEYLLMKWLAYGFRAHMMNLGSYCLGLIPMTILVVNIKPGMAFNSTGIINETSDHSEILDTTNSYLIKTCMILVFLSSIFGSCKEAGQIFQQKRNYFMDISNVLEWIIYTTGIIFVLPLFVEIPAHLQWQCGAIAVYFYWMNFLLYLQRFENCGIFIVMLEVILKTLLRSTVVFIFLLLAFGLSFYILLNLQDPFSSPLLSIIQTFSMMLGDINYRESFLEPYLRNELAHPVLSFAQLVSFTIFVPIVLMNLLIGLAVGDIAEVQKHASLKRIAMQVELHTSLEKKLPLWFLRKVDQKSTIVYPNKPRSGGMLFHIFCFLFCTGEIRQEIPNADKSLEMEILKQKYRLKDLTFLLEKQHELIKLIIQKMEIISETEDDDSHCSFQDRFKKEQMEQRNSRWNTVLRAVKAKTHHLEP", "values": [
      {"measurement": "GCaMP6f peak amplitude upon treatment with AITC, variant versus full-length hsTRPA1", "setting": "[7]", "result": "without affecting responsiveness to AITC"},
      {"measurement": "GCaMP6f peak amplitude upon ultrasound stimulation, variant versus full-length hsTRPA1", "setting": "[6]; transfected HEK cells", "result": "complete loss of ultrasound sensitivity"}
    ]}
  ]
}
